Where two headings read alike, the source gives them in different places.
How the values were obtained:
[1] = biological target: MDR1 (Homo sapiens, UniProt P08183); settings: cited from earlier work
[2] = system: hyaluronan synthase; settings: read-out: HA synthase activity (IC50); membranes of human fibroblasts
[3] = biological target: T1, MRP4 (Homo sapiens, UniProt O15439); settings: cited from earlier work
T1 sequence (O15439 1-1325): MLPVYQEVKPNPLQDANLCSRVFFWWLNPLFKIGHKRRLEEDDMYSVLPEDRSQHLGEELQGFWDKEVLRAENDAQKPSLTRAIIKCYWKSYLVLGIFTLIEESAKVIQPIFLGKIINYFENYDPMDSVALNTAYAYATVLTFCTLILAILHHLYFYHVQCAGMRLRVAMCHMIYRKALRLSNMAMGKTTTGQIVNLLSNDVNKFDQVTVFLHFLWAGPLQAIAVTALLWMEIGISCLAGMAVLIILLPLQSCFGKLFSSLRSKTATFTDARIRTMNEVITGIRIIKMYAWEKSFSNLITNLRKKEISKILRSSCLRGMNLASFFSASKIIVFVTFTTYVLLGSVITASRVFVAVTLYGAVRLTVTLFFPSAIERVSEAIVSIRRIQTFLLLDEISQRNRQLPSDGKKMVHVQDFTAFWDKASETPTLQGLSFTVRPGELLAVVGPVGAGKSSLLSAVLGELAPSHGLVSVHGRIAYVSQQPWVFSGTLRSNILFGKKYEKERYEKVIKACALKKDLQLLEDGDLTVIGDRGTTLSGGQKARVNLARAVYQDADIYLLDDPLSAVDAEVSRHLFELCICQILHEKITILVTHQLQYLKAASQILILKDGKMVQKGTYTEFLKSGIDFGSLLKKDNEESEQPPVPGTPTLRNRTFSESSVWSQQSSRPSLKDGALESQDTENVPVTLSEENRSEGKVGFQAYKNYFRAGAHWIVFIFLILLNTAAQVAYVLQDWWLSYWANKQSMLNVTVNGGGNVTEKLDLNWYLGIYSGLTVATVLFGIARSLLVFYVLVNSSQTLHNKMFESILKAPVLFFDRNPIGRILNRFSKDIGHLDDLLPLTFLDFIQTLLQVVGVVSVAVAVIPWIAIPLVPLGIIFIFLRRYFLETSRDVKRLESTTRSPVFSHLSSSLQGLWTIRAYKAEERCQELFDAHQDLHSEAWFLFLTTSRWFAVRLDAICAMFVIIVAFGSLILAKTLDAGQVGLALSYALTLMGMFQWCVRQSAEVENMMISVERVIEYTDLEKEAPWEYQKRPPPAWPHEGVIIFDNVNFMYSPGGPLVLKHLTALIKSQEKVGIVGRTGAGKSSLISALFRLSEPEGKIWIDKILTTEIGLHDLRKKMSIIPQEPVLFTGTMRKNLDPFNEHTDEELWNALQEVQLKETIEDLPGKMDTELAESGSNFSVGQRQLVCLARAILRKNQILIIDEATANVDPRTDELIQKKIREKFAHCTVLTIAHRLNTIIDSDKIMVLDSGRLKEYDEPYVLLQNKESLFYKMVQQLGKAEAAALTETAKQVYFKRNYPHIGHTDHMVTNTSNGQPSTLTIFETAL

[4] = biological target: MRP transporters (Homo sapiens, UniProt P33527); settings: read-out: IC50 for MRP transporter; cited from earlier work
MRP transporters (Homo sapiens, UniProt P33527), sequence (P33527 whole entry): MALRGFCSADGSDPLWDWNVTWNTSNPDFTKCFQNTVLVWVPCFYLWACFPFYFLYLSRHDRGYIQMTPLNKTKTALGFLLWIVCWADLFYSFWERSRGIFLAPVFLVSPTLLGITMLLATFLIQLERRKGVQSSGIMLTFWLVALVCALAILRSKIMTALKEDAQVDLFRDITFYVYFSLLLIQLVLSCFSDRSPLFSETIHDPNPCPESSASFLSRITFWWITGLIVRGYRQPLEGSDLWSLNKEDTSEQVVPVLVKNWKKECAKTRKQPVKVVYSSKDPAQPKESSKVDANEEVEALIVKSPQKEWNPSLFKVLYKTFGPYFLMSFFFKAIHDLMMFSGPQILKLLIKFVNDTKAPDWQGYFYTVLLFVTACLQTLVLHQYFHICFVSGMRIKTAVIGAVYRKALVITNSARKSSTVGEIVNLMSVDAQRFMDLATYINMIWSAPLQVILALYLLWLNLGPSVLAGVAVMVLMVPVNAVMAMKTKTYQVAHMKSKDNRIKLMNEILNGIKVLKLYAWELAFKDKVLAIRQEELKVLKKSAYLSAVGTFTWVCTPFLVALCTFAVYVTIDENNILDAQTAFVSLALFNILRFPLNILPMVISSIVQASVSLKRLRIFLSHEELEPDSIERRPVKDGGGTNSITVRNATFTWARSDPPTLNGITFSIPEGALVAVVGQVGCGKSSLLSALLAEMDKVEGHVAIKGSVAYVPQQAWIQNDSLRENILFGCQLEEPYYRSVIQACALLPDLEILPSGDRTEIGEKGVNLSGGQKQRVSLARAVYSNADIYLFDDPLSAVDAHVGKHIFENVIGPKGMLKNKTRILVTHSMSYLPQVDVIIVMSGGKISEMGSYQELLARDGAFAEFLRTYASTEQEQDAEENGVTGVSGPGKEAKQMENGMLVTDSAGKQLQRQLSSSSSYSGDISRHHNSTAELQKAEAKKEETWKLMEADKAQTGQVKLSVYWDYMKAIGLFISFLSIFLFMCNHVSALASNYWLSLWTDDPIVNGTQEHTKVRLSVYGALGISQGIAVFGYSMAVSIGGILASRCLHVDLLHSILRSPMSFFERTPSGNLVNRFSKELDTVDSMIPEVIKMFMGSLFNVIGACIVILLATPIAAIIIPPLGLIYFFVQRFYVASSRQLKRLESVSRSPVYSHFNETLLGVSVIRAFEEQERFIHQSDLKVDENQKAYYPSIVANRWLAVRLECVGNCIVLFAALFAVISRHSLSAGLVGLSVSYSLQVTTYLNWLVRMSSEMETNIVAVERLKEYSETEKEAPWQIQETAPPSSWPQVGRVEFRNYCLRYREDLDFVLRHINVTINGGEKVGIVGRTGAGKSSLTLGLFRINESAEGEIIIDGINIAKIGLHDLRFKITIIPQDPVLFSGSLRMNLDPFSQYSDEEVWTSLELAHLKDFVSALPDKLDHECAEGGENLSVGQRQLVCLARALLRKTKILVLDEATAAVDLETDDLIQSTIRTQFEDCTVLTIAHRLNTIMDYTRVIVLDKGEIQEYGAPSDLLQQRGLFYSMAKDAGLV

[5] = system: T2, MRP transporters; settings: human erythrocytes; cited from earlier work
T2 construct: other: human erythrocytes

[6] = biological target: MRP5 (Homo sapiens, UniProt O15440); settings: cited from earlier work
MRP5, sequence (O15440 whole entry): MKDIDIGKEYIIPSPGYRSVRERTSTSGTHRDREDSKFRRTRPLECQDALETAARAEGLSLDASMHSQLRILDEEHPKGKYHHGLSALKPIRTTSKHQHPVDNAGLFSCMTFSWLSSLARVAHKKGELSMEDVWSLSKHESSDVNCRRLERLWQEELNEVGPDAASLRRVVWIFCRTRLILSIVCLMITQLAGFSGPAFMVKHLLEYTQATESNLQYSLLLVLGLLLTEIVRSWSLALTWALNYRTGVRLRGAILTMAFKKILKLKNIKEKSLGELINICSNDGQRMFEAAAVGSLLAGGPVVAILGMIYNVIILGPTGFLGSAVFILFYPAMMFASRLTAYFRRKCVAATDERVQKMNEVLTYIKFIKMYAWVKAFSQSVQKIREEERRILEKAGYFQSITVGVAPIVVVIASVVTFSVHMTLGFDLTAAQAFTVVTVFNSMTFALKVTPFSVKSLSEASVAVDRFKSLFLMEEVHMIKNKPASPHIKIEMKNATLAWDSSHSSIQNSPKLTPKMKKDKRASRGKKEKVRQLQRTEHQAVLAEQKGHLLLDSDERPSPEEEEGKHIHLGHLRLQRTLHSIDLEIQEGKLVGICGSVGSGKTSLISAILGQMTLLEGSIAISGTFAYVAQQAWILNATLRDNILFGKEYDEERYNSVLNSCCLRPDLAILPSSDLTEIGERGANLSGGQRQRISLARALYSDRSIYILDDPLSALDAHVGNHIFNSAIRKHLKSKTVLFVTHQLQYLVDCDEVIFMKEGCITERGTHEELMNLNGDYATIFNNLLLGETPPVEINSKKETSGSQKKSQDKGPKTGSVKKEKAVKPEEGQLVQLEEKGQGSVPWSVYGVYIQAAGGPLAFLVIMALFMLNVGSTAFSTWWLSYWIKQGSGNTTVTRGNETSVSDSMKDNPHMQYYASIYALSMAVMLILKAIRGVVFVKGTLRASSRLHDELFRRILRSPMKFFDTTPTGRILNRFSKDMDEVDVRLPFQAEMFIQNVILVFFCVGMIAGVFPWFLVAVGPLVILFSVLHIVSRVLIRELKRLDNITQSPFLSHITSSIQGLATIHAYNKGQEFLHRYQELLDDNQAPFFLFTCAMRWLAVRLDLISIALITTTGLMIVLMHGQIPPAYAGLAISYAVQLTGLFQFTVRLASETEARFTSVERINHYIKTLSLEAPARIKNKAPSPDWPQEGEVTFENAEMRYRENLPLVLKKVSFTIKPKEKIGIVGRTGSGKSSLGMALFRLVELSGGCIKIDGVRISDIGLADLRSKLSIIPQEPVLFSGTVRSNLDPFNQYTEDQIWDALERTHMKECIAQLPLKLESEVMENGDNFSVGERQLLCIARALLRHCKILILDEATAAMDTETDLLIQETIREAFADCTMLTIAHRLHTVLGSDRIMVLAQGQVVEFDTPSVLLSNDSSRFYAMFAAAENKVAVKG

[7] = system: hyaluronan transport; assay: Inhibition of hyaluronan transport (export) from human fibroblasts, discussion of Example 9; settings: human fibroblasts
Experimental: Cells from five culture flasks (180 cm2 growth area) were washed with cold phosphate buffered saline (PBS), harvested with the aid of a rubber policeman, sedimented at 1500 g for 5 min and suspended in 30 ml of ice-cold PBS. The cells were transferred into a Parr-cell disruption bomb, exposed to a nitrogen pressure of 900 psi for 15 min and disrupted by nitrogen cavitation [18] and the particulate fraction was obtained by centrifugation at 40000 g for 20 min. […] Hyaluronan synthesis was stopped by adding a solution of 10% sodium dodecylsuifate (SDS) to a final concentration of 1%. The mixtures were applied to descending paper chromatography that was developed with ethanol/aq. 1 M ammonium acetate pH 5.5 (13:7) as solvent. After 18 h the radioactivity of [14C]hyaluronan at the origin was determined.
Trypsinised fibroblasts were suspended in Dulbecco's medium at 10^5 cells/ml and 100 μl aliquots were transferred to a 96 well microtiter plate. The first row received 200 μl of the suspension and 20 μl of the multidrug resistance inhibitors dissolved in DMSO at concentrations of 4 mM. A serial dilution to the inhibitors was established by transfer of 100 μl aliquots from the first row to the following rows. All experiments were performed in duplicates. […] The cells were incubated for 2 days at 37° C. and aliquots (5 and 20 μl) of the culture medium were used for measurement of the hyaluronan concentration in the cell culture medium by an ELISA [19]. […] The mixtures were transferred to the hyaluronan-coated test plate and incubated for 1 hour at 37° C. The microtiter plate was washed three times with buffer A and incubated with 100 μl/well of a solution of streptavidin-horseraddish-peroxidase (Amersham) at a dilution of 1:100 in phosphate buffered saline, 0.1% Tween-20 for 30 min at room temperature. The plate was washed five times with buffer A and the colour was developed by incubation with a 100 μl/well of a solution of 5 mg o-phenylenediamine and 5 μl 30% H2O2 in 10 ml of 0.1 M citrate-phosphate buffer pH 5.3 for 25 min at room temperature. The adsorption was read at 490 nm. The concentrations in the samples were calculated from a logarithmic regression curve of the hyaluronan standard solutions.
Three parameters were measured: 1. The amount of hyaluronan produced during growth into the culture supernatant. 2. The hyaluronan synthase activity in particulate membrane fractions to eliminate the possibility that inhibition of hyaluronan production in cell culture could be caused indirectly by cellular mediators. 3. The effect on cell proliferation, because hyaluronan synthesis is also required for detachment during mitosis and growth of the human HT1080 cell line [14].

[8] = system: human fibroblasts; assay: Hyaluronan production of human fibroblasts (ELISA of culture medium); assay type: cell-based; settings: Fibroblast; human fibroblasts, culture medium; read-out: HA production (IC50)

MDR1, sequence (P08183 whole entry): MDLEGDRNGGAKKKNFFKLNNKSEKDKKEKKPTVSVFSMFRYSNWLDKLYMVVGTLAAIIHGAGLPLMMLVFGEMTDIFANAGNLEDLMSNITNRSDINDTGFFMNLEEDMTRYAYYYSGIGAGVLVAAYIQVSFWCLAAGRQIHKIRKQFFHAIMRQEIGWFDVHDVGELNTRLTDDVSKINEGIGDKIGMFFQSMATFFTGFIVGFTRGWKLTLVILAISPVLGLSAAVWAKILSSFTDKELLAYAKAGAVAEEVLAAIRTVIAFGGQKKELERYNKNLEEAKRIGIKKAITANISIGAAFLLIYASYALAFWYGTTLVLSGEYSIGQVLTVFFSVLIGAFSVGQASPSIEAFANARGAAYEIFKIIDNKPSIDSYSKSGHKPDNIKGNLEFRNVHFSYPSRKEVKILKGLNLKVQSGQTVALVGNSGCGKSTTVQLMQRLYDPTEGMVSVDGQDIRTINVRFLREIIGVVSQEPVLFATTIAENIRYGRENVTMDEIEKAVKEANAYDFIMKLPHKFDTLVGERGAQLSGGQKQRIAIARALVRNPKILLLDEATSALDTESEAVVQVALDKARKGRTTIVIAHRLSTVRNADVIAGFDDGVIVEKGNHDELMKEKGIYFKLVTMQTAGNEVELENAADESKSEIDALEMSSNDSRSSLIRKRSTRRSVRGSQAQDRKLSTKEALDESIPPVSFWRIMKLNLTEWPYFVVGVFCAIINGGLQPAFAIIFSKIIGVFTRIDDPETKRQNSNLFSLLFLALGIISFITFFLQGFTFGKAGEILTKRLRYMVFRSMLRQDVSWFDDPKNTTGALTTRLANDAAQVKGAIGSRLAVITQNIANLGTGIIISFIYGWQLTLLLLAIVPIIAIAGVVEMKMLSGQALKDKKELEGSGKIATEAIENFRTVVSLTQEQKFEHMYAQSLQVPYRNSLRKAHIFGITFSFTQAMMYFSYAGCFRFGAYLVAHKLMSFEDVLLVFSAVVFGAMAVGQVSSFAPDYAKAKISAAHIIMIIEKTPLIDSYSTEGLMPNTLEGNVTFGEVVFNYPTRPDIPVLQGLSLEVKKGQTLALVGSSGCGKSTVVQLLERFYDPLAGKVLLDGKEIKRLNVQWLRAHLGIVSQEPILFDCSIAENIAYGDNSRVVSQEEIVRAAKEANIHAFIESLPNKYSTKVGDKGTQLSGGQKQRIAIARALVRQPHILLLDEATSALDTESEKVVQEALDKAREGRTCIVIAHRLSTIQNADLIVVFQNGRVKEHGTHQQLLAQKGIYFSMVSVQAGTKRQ

For `CCCN(CCC)S(=O)(=O)c1ccc(C(=O)O)cc1` [Probenecid], the IC50 ([1]; read-out: IC50 for MDR1) is listed as > 2000 µM, the IC50 ([1]; read-out: published inhibitory concentrations IC50 or Ki, MDR1) is listed as > 2000 µM and the IC50 [2] is listed as 200 µM. The IC50 ([3]; read-out: IC50, 9-(2-phosphonomethoxyethyl)adenine (PMEA) transport by MRP4, substrate PMEA) was 2300 µM, the IC50 ([3]; read-out: IC50, MRP4 mediated export of methotrexate, substrate methotrexate) was ~300 µM and the IC50 ([3]; read-out: published inhibitory concentrations IC50 or Ki, MRP4) was 300 µM. The IC50 [4] was 500 to 800 µM, the IC50 [5] was 100 to 200 µM and the “inhibition of MRP5 mediated transport of cGMP” value ([6]; at a concentration of 50 μM) was 68%. The IC50 ([6]; substrate PMEA, read-out: IC50, PMEA transport by MRP5) was 200 µM, the “concentration inhibiting export of fluorescein diacetate by MRP5” value ([6]; substrate fluorescein diacetate) was 1 mM and the “inhibition of hyaluronan transport (words)” value [7] was “inhibited hyaluronan transport”. For the same compound, the IC50 [8] was 200 µM.

Source: patent publication US20080152640A1, “Means and Methods For Treating a Disease Which is Associated With an Excess Transport of Hyaluronan Across a Lipid Bilayer” (priority 2003, published 2008)
